Results from patent US10828305B2 (SHANGHAI PHARMACEUTICALS HOLDING CO., LTD., priority 2016, dated 2020).

Experiments:
[1] = target: ErbB2 kinase (Homo sapiens, UniProt P04626); experiment: Enzymatic experiment on ErbB2 (HTRF kinEASE-TK); assay type: biochemical; settings: ATP 4 μM; read-out: Kinase IC50 (nM) in vitro ErbB2
Protocol: (§1) Enzymatic Experiment on EGFR/ErbB2
(§2) Firstly, preparing 1× reaction buffer required for the kinase, 5× Enzymatic buffer (HEPES 20 mM pH7.0, NaN3 0.1%, BSA 0.05%, sodium orthovanadate 0.5 mM) in the HTRF kinEASE-TK kit was diluted to 1 time with deionized water, 50 nM Supplement Enzymatic buffer (SEB reagent), 1 mM MnCl2, 5 mM MgCl2 and 1 mM DTT were added. Secondly, preparing 5× compound, 10 mM test compound stock solution was diluted in multiple steps with DMSO in a 96-well compound plate to prepare 100× compound as initial concentration, which was then used as the first concentration to perform a 3-fold gradient dilution with DMSO to obtain 10 concentrations. Afterwards, 1 μl gradient dilution was added to 19 μl 1× reaction buffer to prepare 5× compound for use. Then 2 μl 5× compound was transferred from the 96 well plate into a 384-well plate. To the compound-free control wells was added with 2 μl the following liquid: 19 μl 1× reaction buffer with addition of 1 μl DMSO. To the blank control wells was added 2 μl 250 mM EDTA. The third step was enzymatic reaction, the kinase, substrate (TK Substrate-biotin) and ATP were formulated into 2.5× enzyme/substrate mixture and 2.5×ATP solution using 1× reaction buffer respectively. The final concentration of ErbB2 kinase was 0.06 ng/μl, the final concentration of ATP was 4 μM; the final concentration of EGFR kinase was 0.06 units/μl, the final concentration of ATP was 1.65 μM; 4 μl 2.5× enzyme/substrate mixture was added to a 384-well plate, which was incubated at room temperature for 5 minutes; 4 μl 2.5×ATP solution was added to each well and the mixture was allowed to react for 30 minutes at room temperature. The fourth step was termination of the reaction, HTRF Detection buffer was used to prepare a mixture of 2×TK Antibody-Eu(K) and Sa-XL665, the amount of TK Antibody-Eu(K) was 5 μl per well. After the enzymatic reaction was performed for 30 minutes, 10 μl of the above liquid was added to the 384-well plate and the mixture was allowed to react at room temperature for 1 hour. The data was measured on EnVision™, the laser of 337 nm wavelength was selected as the excitation light, RFU665 nM and RFU620 nM were measured, and […]/RFU620 nM×10000 was used as the final data for analysis.

[2] = target: EGFR kinase (Homo sapiens, UniProt P00533); experiment: Enzymatic experiment on EGFR (HTRF kinEASE-TK); assay type: biochemical; settings: ATP 1.65 μM; read-out: Kinase IC50 (nM) in vitro EGFR
Protocol: as §1, §2

[3] = tested on: N87; experiment: Proliferation inhibition assay in vitro, N87 (CellTiter-Glo); assay type: cell-based; settings: Homo sapiens; 72 hours; read-out: IC50(nM) cell N87
Protocol: (§3) Proliferation Inhibition Assay In Vitro of Cell Lines
(§4) 1. Cell culture and inoculation: on the first day of the experiment, normal cultured cells were taken in the exponential growth phase, the cells were dispersed by digesting, then the cell density was adjusted to 8.8×10^4 cells/mL for BT-474 and 6.6×10^4 cells/mL for N87, 90 μl of which were inoculated to each well in a 96-well cell culture plate; after inoculation, the microplate was placed at condition of 37° C., 5% CO2 overnight. 2. Dosing to cells: on the second day of the experiment, the microplate was taken out from incubator, […], of 10× compound was separately added to each well of the microplate, 2 duplicated wells were set for each concentration, 9 dosing concentrations were set for each compound. According to different cell lines, the initial concentration of each compound was different. Upon completion of addition, the microplate was placed at condition of 37° C., 5% CO2 for 72 hours. 3. Data acquisition: the microplate was taken out from the incubator and allowed to stand at room temperature to equilibrate for 30 minutes. 100 μl CellTiter-Glo® Luminescent Cell Viability Assay reaction solution which had been equilibrated at room temperature was added to each well and the microplate was shaken at 1300 rpm for 2 minutes at room temperature. The microplate was centrifuged at 2000 rpm for 1 minute in a HERAEUS Multifuge X1R and then allowed to equilibrate at room temperature for 10 minutes. The […] signal was measured on EnVision™.

[4] = tested on: BT-474; experiment: Proliferation inhibition assay in vitro, BT-474 (CellTiter-Glo); assay type: cell-based; settings: Homo sapiens, 72 hours, read-out: IC50(nM) cell BT-474
Protocol: as §3, §4

Chain of ErbB2 kinase (P04626 23-1255): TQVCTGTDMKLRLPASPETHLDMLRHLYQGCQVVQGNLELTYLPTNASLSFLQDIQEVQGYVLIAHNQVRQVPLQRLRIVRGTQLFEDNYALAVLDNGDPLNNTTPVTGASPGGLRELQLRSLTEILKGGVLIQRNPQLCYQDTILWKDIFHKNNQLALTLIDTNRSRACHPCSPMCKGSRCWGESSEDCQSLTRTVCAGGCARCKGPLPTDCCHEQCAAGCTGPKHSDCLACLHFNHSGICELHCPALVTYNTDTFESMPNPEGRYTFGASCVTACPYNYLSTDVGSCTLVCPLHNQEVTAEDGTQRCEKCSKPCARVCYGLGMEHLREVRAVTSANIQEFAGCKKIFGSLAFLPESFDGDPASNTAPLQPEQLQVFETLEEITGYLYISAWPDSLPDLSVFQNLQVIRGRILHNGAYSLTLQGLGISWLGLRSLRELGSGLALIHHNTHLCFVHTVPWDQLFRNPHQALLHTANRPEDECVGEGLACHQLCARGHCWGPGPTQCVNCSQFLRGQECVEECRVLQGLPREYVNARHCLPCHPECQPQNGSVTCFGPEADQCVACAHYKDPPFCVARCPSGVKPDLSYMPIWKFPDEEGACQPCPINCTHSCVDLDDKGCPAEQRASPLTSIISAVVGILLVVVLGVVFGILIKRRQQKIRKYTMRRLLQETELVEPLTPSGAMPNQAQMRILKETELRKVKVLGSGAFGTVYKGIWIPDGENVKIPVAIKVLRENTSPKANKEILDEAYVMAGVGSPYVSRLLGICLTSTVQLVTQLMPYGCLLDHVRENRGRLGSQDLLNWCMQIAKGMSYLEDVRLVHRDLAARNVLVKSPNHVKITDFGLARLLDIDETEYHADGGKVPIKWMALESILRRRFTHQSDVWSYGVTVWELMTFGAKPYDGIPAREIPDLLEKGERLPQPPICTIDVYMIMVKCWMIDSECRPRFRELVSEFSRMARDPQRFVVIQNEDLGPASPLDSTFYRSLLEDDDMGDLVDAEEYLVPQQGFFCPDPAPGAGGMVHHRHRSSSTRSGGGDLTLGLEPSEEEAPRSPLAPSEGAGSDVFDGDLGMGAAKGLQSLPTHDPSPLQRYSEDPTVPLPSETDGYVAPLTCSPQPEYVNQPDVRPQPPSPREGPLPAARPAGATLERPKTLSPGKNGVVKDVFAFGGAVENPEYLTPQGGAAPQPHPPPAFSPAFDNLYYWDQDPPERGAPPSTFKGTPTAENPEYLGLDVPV
Chain of EGFR kinase (P00533 25-1210): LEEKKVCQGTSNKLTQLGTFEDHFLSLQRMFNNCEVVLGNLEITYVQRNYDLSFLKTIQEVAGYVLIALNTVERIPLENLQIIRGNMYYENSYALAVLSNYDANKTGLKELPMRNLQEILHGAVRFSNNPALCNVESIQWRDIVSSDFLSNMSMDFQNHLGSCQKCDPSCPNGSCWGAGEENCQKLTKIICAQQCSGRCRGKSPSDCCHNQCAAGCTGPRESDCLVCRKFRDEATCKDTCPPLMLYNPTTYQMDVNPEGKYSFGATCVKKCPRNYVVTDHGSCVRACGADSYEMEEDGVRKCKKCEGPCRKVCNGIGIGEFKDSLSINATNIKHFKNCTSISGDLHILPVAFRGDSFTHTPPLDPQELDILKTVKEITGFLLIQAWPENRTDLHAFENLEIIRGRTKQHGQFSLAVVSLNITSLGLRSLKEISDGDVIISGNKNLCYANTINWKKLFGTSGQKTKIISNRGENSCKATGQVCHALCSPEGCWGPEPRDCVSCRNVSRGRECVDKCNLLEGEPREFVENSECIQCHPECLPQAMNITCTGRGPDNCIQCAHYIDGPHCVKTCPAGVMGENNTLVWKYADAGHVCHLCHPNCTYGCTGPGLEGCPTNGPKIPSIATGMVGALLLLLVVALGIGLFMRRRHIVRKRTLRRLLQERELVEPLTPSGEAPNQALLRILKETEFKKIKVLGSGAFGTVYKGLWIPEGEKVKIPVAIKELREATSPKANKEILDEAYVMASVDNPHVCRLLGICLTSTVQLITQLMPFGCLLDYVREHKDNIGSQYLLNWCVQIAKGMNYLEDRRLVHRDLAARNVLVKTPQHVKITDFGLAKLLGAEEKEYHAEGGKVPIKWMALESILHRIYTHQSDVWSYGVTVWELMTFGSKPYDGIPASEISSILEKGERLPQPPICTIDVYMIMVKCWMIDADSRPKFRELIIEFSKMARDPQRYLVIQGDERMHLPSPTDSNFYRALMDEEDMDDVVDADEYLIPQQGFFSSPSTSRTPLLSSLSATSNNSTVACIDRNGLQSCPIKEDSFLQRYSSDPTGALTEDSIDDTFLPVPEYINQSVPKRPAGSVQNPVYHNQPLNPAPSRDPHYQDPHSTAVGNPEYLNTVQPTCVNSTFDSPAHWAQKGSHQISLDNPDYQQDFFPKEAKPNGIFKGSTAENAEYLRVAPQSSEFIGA

Compound | IC50 [1] [nM] | IC50 [2] [nM] | IC50 [4] [nM] | IC50 [3] [nM]
Cc1cc(Nc2ncnc3ccc(NC4=NC(C)(C)CO4)cc23)ccc1Oc1cc2ncnn2cn1 [Embodiment 2, N^4-(4-([1,2,4]triazolo[1,5-c]pyrimidin-7-yloxy)-3-methylphenyl)-N^6-(4,4-dimethyl-4,5-dihydrooxazol-2-yl)quinazoline-4,6-diamine] | 16.7 | 230 |  | 
Cc1cc(Nc2ncnc3ccc(NC4=NC(C)(C)CO4)cc23)ccc1Oc1cc2nccn2cn1 [Embodiment 3, N^6-(4,4-dimethyl-4,5-dihydrooxazol-2-yl)-N^4-(4-(imidazo[1,2-c]pyrimidin-7-yloxy)-3-methylphenyl)quinazoline-4,6-diamine] | 1.1 | 18.7 | 38.5 | 48.7
Cc1cc(Nc2ncnc3ccc(NC(=O)N4CCOCC4)cc23)ccc1Oc1cc2nncn2cn1 [Embodiment 6] | 24.8 | 1890 |  | 
Cc1cc(Nc2ncnc3ccc(NC(=S)NC(C)(C)CNC(=O)OC(C)(C)C)cc23)ccc1Oc1cc2nncn2cn1 [Embodiment 11, tert-butyl (2-(3-(4-((4-([1,2,4]triazolo[4,3-c]pyrimidin-7-yloxy)-3-methylphenyl)amino)quinazolin-6-yl)thioureido)-2-methylpropyl)carbamate] | 58.1 | > 3330 |  | 
Cc1cc(Nc2ncnc3ccc(NC(=S)NCC(C)(C)N)cc23)ccc1Oc1cc2nncn2cn1 [Embodiment 18, 1-(4-((4-([1,2,4]triazolo[4,3-c]pyrimidin-7-yloxy)-3-methylphenyl)amino)quinazolin-6-yl)-3-(2-amino-2-methylpropyl)thiourea] | 13.2 | 79.5 |  | 
Cc1cc(Nc2ncnc3ccc(NC4=NCC5(CCNCC5)O4)cc23)ccc1Oc1cc2nncn2cn1 [Embodiment 28, N^4-(4-([1,2,4]triazolo[4,3-c]pyrimidin-7-yloxy)-3-methylphenyl)-N^6-(1-oxa-3,8-diazaspiro[4.5]dec-2-en-2-yl)quinazoline-4,6-diamine] | 4.79 | 17.7 |  | 
C=CC(=O)N1CC2(COC(Nc3ccc4ncnc(Nc5ccc(Oc6cc7nncn7cn6)c(C)c5)c4c3)=N2)C1 [Embodiment 29, 1-(6-((4-((4-([1,2,4]triazolo[4,3-c]pyrimidin-7-yloxy)-3-methylphenyl)amino)quinazolin-6-yl)amino)-7-oxa-2,5-diazaspiro[3.4]oct-5-en-2-yl)prop-2-en-1-one] | 3.6 | 41.8 |  | 
Cc1cc(Nc2ncnc3ccc(NC(=O)c4cnoc4C)cc23)ccc1Oc1cc2nncn2cn1 [Embodiment 39, N-(4-((4-([1,2,4]triazolo[4,3-c]pyrimidin-7-yloxy)-3-methylphenyl)amino)quinazoline-6-yl)-5-methylisoxazole-4-carboxamide] | 1.8 | 20 |  | 
Cc1cc(Nc2ncnc3ccc(NC4=NCC(F)(F)CO4)cc23)ccc1Oc1cc2nncn2cn1 [Embodiment 43, N^4-(4-([1,2,4]triazolo[4,3-c]pyrimidin-7-yloxy)-3-methylphenyl)-N^6-(5,5-difluoro-5,6-dihydro-4H-1,3-oxazin-2-yl)quinazoline-4,6-diamine] | 9.26 | 69.7 |  | 
Cc1cc(Nc2ncnc3ccc(NC(=O)Nc4cc(C)n(C(=O)OC(C)(C)C)n4)cc23)ccc1Oc1cc2nncn2cn1 [Embodiment 69, tert-butyl 3-(3-(4-((4-([1,2,4]triazolo[4,3-c]pyrimidin-7-yloxy)-3-methylphenyl)amino)quinazolin-6-yl)ureido)-5-methyl-1H-pyrazol-1-carbamate] | 7 | 92.7 |  | 
Cc1cc(Nc2ncnc3ccc(NC(=O)/C(C#N)=C/C4CC4)cc23)ccc1Oc1cc2nncn2cn1 [Embodiment 85, (E)-N-(4-((4-([1,2,4]triazolo[4,3-c]pyrimidin-7-yloxy)-3-methylphenyl)amino)quinazolin-6-yl)-2-cyano-3-cyclopropylacrylamide] | 2.2 | 14.9 |  | 
CC1(C)COC(Nc2ccc3ncnc(Nc4ccc(Oc5cc6nncn6cn5)c(CO)c4)c3c2)=N1 [Embodiment 89, N^4-(3-hydroxymethyl-4-([1,2,4]triazolo[4,3-c]pyrimidin-7-yloxy)phenyl)-N^6-(4,4-dimethyl-4,5-dihydrooxazol-2-yl)quinazolin-4,6-diamine] | 8.5 | 167 |  | 
Cc1cc(Nc2ncnc3ccc(NC4=NC(C)(C)CO4)cc23)ccc1Oc1ncn2cnnc2c1O [Embodiment 102, 7-(4-((6-((4,4-dimethyl-4,5-dihydrooxazol-2-yl)amino)quinazolin-4-yl)amino)-2-methylphenoxy)-[1,2,4]triazolo[4,3-c]pyrimidin-8-ol] | 4.5 | 11.4 |  | 
C=CC(=O)N1CCC2(CC1)CN=C(Nc1ccc3ncnc(Nc4ccc(Oc5cc6nncn6cn5)c(C)c4)c3c1)O2 [Embodiment 114, 1-(2-((4-((4-([1,2,4]triazolo[4,3-c]pyrimidin-7-yloxy)-3-methylphenyl)amino)quinazolin-6-yl)amino)-1-oxa-3,8-diazaspiro[4,5]dec-2-en-8-yl)-2-acrylamide] | 24.5 | 623 |  | 

Continued by falling IC50 [2], values first:

IC50 [1] [nM] | IC50 [2] [nM] | IC50 [4] [nM] | Compound | IC50 [3] [nM]
12.9 | 703 | 460 | Cc1cc(Nc2ncnc3ccc(Br)cc23)ccc1Oc1cc2nncn2cn1 [Embodiment 5, N-(4-([1,2,4]triazolo[4,3-c]pyrimidin-7-yloxy)-3-methylphenyl)-6-bromoquinazolin-4-amine] | 313
935 | 557 |  | Cc1cc(Nc2ncnc3ccc(NC4=NC(C)(C)CO4)cc23)ccc1Oc1ccc2nncn2n1 [reference compound] | 
9.4 | 170 |  | Cc1cc(Nc2ncnc3ccc(NC(=S)NCC(C)(C)O)cc23)ccc1Oc1cc2nncn2cn1 [Embodiment 113, 1-(4-((4-([1,2,4]triazolo[4,3-c]pyrimidin-7-yloxy)-3-methylphenyl)amino)quinazolin-6-yl)-3-(2-hydroxy-2-methylpropyl)thiourea] | 
22.1 | 82.7 |  | Cc1cc(Nc2ncnc3ccc(/C=C/C(=O)NOCCO)cc23)ccc1Oc1cc2nncn2cn1 | 
49.4 | 82.7 |  | Cc1cc(Nc2ncnc3ccc(NC4=NC(C)(C)CO4)cc23)ccc1Oc1ccn2nccc2n1 [reference compound] | 
 | 57.6 | 14.2 | Cc1cc(Nc2ncnc3ccc(NC4=NC(C)(C)CO4)cc23)ccc1Oc1ccn2ncnc2c1 [drawing 219, reference compound] | 13.2
4.8 | 45.2 |  | Cc1cc(Nc2ncnc3ccc(NC(=O)CC#N)cc23)ccc1Oc1cc2nncn2cn1 [Embodiment 37, N-(4-((4-([1,2,4]triazolo[4,3-c]pyrimidin-7-yloxy)-3-methylphenyl)amino)quinazoline-6-yl)-2-cyanoacetamide] | 
4.3 | 40.6 |  | Cc1cc(Nc2ncnc3ccc(NC(=O)OC[C@@H]4COCCN4)cc23)ccc1Oc1cc2nncn2cn1 [Embodiment 20, morpholin-3-ylmethyl (S)-(4-((4-([1,2,4]triazolo[4,3-c]pyrimidin-7-yloxy)-3-methylphenyl)amino)quinazolin-6-yl)carbamate] | 
6.9 | 12.7 |  | COc1cc2ncnc(Nc3ccc(Oc4cc5nncn5cn4)c(C)c3)c2cc1OC1CCNCC1 [Embodiment 40, N-(4-([1,2,4]triazolo[4,3-c]pyrimidin-7-yloxy)-3-methylphenyl)-7-methoxy-6-(piperidin-4-yloxy)quinazolin-4-amine] | 
